In patent US10800755B2, “2,6-disubstituted pyridine derivative” (Sumitomo Dainippon Pharma Co., Ltd., priority 2017, dated 2020):

Assays:
[1] = Test 3-2: metabolic stability test of human liver microsome (0.5 or 1.0 mg/mL); format: in vitro ADME; conditions: test compound 0.1 μmol/L, 37° C., 30 minutes
Experimental: Test 3-2: Metabolic Stability Test of Human Liver Microsome
In order to evaluate the metabolic stability of human liver microsomes more precisely, the stability of the present compounds for human liver microsome metabolism was evaluated with a suitable concentration of human liver microsome, as mentioned below. The used human liver microsome was obtained from Xenontech. Human liver microsome, NADPH, and each test compound were mixed in 25 mmol/L phosphate buffer solution (pH 7.4) to adjust each concentration as shown below, and the mixture was incubated at 37° C. for 30 minutes. • human liver microsome: 0.5 or 1.0 mg/mL • NAPDH: 3.2 mmol/L • test compound: 0.1 μmol/L
The residual ratio of the test compound in each sample after the incubation for 30 minutes was measured with a LC-MS, and the metabolic stability of human liver microsome was calculated about each test compound with the following formula. Metabolic stability of human liver microsome (mL/min/mg protein)=−LN (residual ratio)/“reaction time”/“concentration of human liver microsome”

hERG channel = hERG channel (Homo sapiens (Human), UniProt Q12809); experiment: Test 5-1: activity for inhibiting hERG channel (whole-cell patch clamp, hERG-CHO cell, Qpatch); format: cell-based; conditions: read-out: hERG inhibition IC50
Sequence of hERG channel (Q12809 whole entry): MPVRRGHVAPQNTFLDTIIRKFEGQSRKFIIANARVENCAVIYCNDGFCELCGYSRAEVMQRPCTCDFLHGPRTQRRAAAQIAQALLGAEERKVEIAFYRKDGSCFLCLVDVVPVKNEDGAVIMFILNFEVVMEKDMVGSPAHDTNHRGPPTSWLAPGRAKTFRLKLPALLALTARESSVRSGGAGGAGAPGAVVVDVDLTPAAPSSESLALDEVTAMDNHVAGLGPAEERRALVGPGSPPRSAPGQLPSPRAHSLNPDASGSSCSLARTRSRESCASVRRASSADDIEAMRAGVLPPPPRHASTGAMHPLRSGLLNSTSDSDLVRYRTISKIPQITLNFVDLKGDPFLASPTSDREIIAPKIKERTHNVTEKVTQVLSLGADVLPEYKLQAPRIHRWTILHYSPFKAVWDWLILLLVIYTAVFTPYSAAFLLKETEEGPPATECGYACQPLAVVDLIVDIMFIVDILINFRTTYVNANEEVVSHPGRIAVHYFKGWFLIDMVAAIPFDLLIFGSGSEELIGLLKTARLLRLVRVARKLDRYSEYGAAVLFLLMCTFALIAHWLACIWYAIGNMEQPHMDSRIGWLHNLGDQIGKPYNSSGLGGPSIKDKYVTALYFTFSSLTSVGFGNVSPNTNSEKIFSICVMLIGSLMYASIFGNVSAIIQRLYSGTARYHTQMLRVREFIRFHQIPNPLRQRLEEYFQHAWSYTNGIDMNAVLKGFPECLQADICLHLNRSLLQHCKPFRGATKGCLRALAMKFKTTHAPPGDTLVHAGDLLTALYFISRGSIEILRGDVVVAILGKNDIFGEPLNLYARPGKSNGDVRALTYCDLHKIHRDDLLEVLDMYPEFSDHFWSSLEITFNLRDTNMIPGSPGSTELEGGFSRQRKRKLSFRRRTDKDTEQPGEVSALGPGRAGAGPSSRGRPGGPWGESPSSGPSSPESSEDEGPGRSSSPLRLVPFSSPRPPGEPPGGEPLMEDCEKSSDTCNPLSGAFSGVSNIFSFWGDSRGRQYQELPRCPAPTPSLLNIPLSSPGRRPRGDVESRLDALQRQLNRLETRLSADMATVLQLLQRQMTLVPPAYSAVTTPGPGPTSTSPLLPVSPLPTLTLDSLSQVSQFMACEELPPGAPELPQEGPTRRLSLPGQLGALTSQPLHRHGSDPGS
Experimental: Test 5-1: Evaluation of Activity for Inhibiting hERG Channel
The activity of the present compound for inhibiting hERG channel was measured by whole-cell patch clamp method with auto patch clamp system, using CHO cell wherein hERG channel involved in human rapidly activating delayed rectifier potassium current (IKr) was forcibly expressed.
hERG-CHO cell purchased from ChanTest was incubated at 37° C. in a CO2 incubator, and the cell was exfoliated from the flask with trypsin to prepare a cell suspension, shortly before the hERG current measurement.
Extracellular fluid: 2 mmol/L CaCl2, 1 mmol/L MgCl2, 10 mmol/L HEPES, 4 mmol/L KCl, 145 mmol/L NaCl, 10 mmol/L glucose
Intracellular fluid: 5.4 mmol/L CaCl2, 1.8 mmol/L MgCl2, 10 mmol/L HEPES, 31 mmol/L KOH, 10 mmol/L EGTA, 120 mmol/L KCl, 4 mmol/L Na2-ATP
Test compound solution: The test compound was dissolved in DMSO by adjusting the concentration to 2 mmol/L or 20 mmol/L to prepare each test compound solution. […] (Measurement of Current Value and Data Analysis)
The cell suspension, the extracellular fluid, the intracellular fluid, and the measurement plate were set in an auto patch clamp system, and the hERG current was measured by whole-cell patch clamp method. […] Each pulse interval was 15 seconds. The data analysis was carried out with Qpatch Assay Software (Biolin Scientific). The test was carried out applying increscently 4 concentrations of each test compound, and the average of the peak tail currents that were obtained by the last 3 stimulations in each applied concentration was determined to be the evaluated data. By using the current inhibition rate for the pre-applied current at each concentration of each test compound, IC50 value was calculated by Hill equation with the software.

human 5-HT1A receptor = human 5-HT1A receptor (Homo sapiens (Human), UniProt P08908); experiment: Test 2: binding activity to human 5-HT1A receptor ([3H] 8-OH-DPAT, CHO cell membrane); conditions: [3H] 8-OH-DPAT; read-out: 5-HT1A binding affinity (Ki value)
Sequence of human 5-HT1A receptor (P08908 whole entry): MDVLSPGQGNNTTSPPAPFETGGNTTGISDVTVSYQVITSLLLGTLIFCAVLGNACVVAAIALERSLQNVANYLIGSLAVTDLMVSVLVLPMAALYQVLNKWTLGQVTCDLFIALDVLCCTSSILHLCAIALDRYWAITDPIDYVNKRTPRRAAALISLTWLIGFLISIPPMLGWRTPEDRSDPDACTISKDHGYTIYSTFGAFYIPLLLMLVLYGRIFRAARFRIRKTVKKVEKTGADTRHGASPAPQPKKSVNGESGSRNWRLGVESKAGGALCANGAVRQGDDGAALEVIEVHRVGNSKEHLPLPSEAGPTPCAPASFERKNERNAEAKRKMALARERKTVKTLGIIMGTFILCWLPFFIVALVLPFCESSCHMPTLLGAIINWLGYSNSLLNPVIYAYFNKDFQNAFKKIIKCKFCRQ

human D4 receptor = human D4 receptor (Homo sapiens (Human), UniProt P21917); experiment: Test 2: binding activity to human D4 receptor ([3H] dopamine, CHO cell membrane); conditions: [3H] dopamine; read-out: D4 binding affinity (Ki value)
Sequence of human D4 receptor (P21917 whole entry): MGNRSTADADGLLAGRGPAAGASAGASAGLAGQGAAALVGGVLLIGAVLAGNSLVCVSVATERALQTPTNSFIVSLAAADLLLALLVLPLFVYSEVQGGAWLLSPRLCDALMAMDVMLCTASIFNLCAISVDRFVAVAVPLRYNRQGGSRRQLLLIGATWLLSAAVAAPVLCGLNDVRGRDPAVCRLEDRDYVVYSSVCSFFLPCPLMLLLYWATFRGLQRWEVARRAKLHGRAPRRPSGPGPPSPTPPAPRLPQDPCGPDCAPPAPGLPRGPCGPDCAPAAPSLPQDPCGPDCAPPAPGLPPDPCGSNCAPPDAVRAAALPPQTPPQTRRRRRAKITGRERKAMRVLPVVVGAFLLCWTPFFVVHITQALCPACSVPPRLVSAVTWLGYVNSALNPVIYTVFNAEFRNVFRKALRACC

[2] = Test 3-1: metabolic stability test of human liver microsome (0.1 mg/mL); format: in vitro ADME; conditions: test compound 0.1 μmol/L, 37° C., 30 minutes
Method in brief: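 Compound at 0.1 μmol/L incubated 30 min at 37 °C with human liver microsomes (0.1 mg/mL) and NADPH (3.2 mmol/L) in 25 mmol/L phosphate buffer, pH 7.4. Remaining parent measured by LC-MS; stability given as −ln(residual ratio)/time/microsome concentration (mL/min/mg protein).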

SMILES: O=C(NCCN1CCC(c2cccc(C(F)(F)F)n2)CC1)C1CCC(F)(F)CC1 [Example 1, 4,4-Difluoro-N-(2-{4-[6-(trifluoromethyl)pyridin-2-yl]piperidin-1-yl}ethyl)cyclohexane-carboxamide]
- Metabolic stability of human liver microsome [1]: 0.031 mL/min/mg protein
- IC50 (hERG channel): 2500 nM
- Ki (human 5-HT1A receptor): 0.4 nM
- Ki (human D4 receptor): 11 nM
- Metabolic stability of human liver microsome [2]: 0.073 mL/min/mg protein
